Like-named read-outs stand apart in the source and are kept apart here. No end group written: not given here.
Target: T1, PACAP-R3 (Homo sapiens, UniProt P41587)
T1 sequence (P41587 24-438): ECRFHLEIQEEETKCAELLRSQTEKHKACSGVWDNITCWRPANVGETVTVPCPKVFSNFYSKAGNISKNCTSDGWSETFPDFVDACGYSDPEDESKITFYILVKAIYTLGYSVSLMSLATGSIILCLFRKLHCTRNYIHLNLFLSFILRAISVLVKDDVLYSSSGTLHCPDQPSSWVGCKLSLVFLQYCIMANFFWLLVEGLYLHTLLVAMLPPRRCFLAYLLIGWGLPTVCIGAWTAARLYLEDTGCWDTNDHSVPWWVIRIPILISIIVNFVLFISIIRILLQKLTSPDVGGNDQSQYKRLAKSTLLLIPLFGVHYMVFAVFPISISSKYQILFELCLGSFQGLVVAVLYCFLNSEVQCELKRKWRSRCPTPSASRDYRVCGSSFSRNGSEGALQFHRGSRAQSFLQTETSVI
Experiment: Cyclic AMP SPA on CHO cells expressing PACAP R3
Type: cell-based
Design: expressed in transfected cells; host or cells: CHO cells (Geneticin selection)
Details: for R3 Selectivity: ratio of EC50 at R2 versus EC50 at R3
Protocol: CHO cells expressing the PACAP R3 were plated in 96-well plates (Costar) at 8×10^4 cell/well and grown at 37 C. for 24 hours in α MEM+nucleosides+glutamine (Giobco BRL), 10% FBS, 100 μg/ml Pen/Strep, 0.3 mg/ml glutamine, 1 mM HEPES, 0.5 mg/ml Geneticin (Gibco BRL). The media was removed and the plates were washed with PBS. The cells were incubated with a peptide, in Hepes-PBS-BSA with 0.4 mg/mlSoybean Trypsin Inhibitor, 0.5 mg/ml Bacitracin, 100 uM IBMX, for 15 min at 37 C. Cyclic AMP in the cell extracts was quantitated using the cAMP SPA direct screening assay system (Amersham Pharmacia Biotech Inc, Piscataway, N.J.,). The peptides shown in Table 3 were assayed for cAMP activity.
EC50 is defined as the concentration of the polypeptide at which 50% of maximum PACAP27 activity is achieved. “NA” denotes no detectable activities. “R3 Selectivity” is derived from the ratio of EC50 at R2 versus EC50 at R3.

[1] = cAMP SPA, CHO cells transfected with PACAP-R3, concentration at which 50% of maximum PACAP27 activity is achieved, NA = no detectable activities, read-out: R3 EC50

Compound | EC50 [1] | R3 Selectivity | EC50
HSDAVFTDNYTRLRKQMAQKKYLNSIKNKR [Peptide R3P109] | 10 nM | 100 | 
CC[C@H](C)[C@H](NC(=O)CNC(=O)[C@H](CC(=O)O)NC(=O)[C@H](CO)NC(=O)[C@@H](N)Cc1c[nH]cn1)C(=O)N[C@@H](Cc1ccccc1)C(=O)N[C@H](C(=O)N[C@@H](CC(=O)O)C(=O)N[C@@H](CO)C(=O)N[C@@H](Cc1ccc(O)cc1)C(=O)N[C@@H](CO)C(=O)N[C@@H](CCCNC(=N)N)C(=O)N[C@@H](Cc1ccc(O)cc1)C(=O)N[C@@H](CCCNC(=N)N)C(=O)N[C@@H](CCCCN)C(=O)N[C@@H](CCC(N)=O)C(=O)N[C@@H](CC(C)C)C(=O)N[C@@H](C)C(=O)N[C@H](C(=O)N[C@@H](CCCCN)C(=O)N[C@@H](CCCCN)C(=O)N[C@@H](Cc1ccc(O)cc1)C(=O)N[C@@H](CC(C)C)C(=O)N[C@@H](C)C(=O)N[C@@H](C)C(=O)N[C@H](C(=O)N[C@@H](CCCCN)C(=O)N[C@@H](CCCCN)C(=O)O)C(C)C)C(C)C)[C@@H](C)O [Peptide R3P39] | 0.5 nM |  | 
H-HSDAVFTDNYTRLRKQMAPKKYLNSIKNKR [Peptide R3P108] | 300 nM | 3 | 
CC[C@H](C)[C@H](NC(=O)[C@@H](NC(=O)[C@H](CC(N)=O)NC(=O)[C@H](CC(C)C)NC(=O)[C@H](Cc1ccc(O)cc1)NC(=O)[C@H](CCCCN)NC(=O)[C@H](CCCCN)NC(=O)[C@H](C)NC(=O)[C@H](C)NC(=O)[C@H](CC(C)C)NC(=O)[C@H](CCC(N)=O)NC(=O)[C@H](CCCCN)NC(=O)[C@H](CCCNC(=N)N)NC(=O)[C@H](CC(C)C)NC(=O)[C@H](CCCNC(=N)N)NC(=O)[C@@H](NC(=O)[C@H](Cc1ccc(O)cc1)NC(=O)[C@H](CC(N)=O)NC(=O)[C@H](CC(=O)O)NC(=O)[C@@H](NC(=O)[C@H](Cc1ccccc1)NC(=O)[C@@H](NC(=O)[C@H](C)NC(=O)[C@H](CC(=O)O)NC(=O)[C@H](CO)NC(=O)[C@@H](N)Cc1c[nH]cn1)C(C)C)[C@@H](C)O)[C@@H](C)O)[C@@H](C)O)C(=O)N[C@@H](CCCCN)C(=O)N[C@@H](CC(N)=O)C(=O)N[C@@H](CCCCN)C(=O)N[C@@H](CCCNC(=N)N)C(=O)N[C@@H](Cc1ccc(O)cc1)C(=O)O [Peptide R3P67] | 0.3 nM |  | 
HSDGIFTDSYSRYRKQLAAKKYLADVKK [Peptide R3P38] |  | 7 | 
CC[C@H](C)[C@H](NC(=O)CNC(=O)[C@H](CC(=O)O)NC(=O)[C@H](CO)NC(=O)[C@@H](N)Cc1c[nH]cn1)C(=O)N[C@@H](Cc1ccccc1)C(=O)N[C@H](C(=O)N[C@@H](CC(=O)O)C(=O)N[C@@H](CO)C(=O)N[C@@H](Cc1ccc(O)cc1)C(=O)N[C@@H](CO)C(=O)N[C@@H](CCCNC(=N)N)C(=O)N[C@@H](Cc1ccc(O)cc1)C(=O)N[C@@H](CCCNC(=N)N)C(=O)N[C@@H](CCCCN)C(=O)N[C@@H](CCC(N)=O)C(=O)N[C@@H](CCSC)C(=O)N[C@@H](C)C(=O)N[C@H](C(=O)N[C@@H](CCCCN)C(=O)N[C@@H](CCCCN)C(=O)N[C@@H](Cc1ccc(O)cc1)C(=O)N[C@@H](CC(C)C)C(=O)N[C@@H](C)C(=O)N[C@@H](C)C(=O)N[C@H](C(=O)N[C@@H](CCCCN)C(=O)N[C@@H](CCCCN)C(=O)O)C(C)C)C(C)C)[C@@H](C)O [Peptide R3P40] | 0.7 nM |  | 
H-HSDAVFTDNYTRLRKQLAVKKYLNDIKKGGT-OH [Peptide R3P21] | 0.3 nM | 60 | 
Ac-HSDAVFTENYTKLRKQLAAKKYLNDLKKGGT [Peptide R3P2] | 3 nM |  | 
CC[C@H](C)[C@H](NC(=O)[C@H](CO)NC(=O)[C@H](CCC(N)=O)NC(=O)[C@H](CC(C)C)NC(=O)[C@H](Cc1ccc(O)cc1)NC(=O)[C@H](CCCCN)NC(=O)[C@H](CCCCN)NC(=O)[C@H](C)NC(=O)[C@H](C)NC(=O)[C@@H](NC(=O)[C@H](CCC(N)=O)NC(=O)[C@H](CCCCN)NC(=O)[C@H](CCCNC(=N)N)NC(=O)[C@H](CC(C)C)NC(=O)[C@H](CCCNC(=N)N)NC(=O)[C@@H](NC(=O)[C@H](Cc1ccc(O)cc1)NC(=O)[C@H](CC(N)=O)NC(=O)[C@H](CC(=O)O)NC(=O)[C@@H](NC(=O)[C@H](Cc1ccccc1)NC(=O)[C@@H](NC(=O)[C@H](C)NC(=O)[C@H](CC(=O)O)NC(=O)[C@H](CO)NC(=O)[C@@H](N)Cc1c[nH]cn1)C(C)C)[C@@H](C)O)[C@@H](C)O)C(C)C)C(=O)N[C@@H](CC(C)C)C(=O)N[C@@H](CCCCN)C(=O)N[C@@H](CCCCN)C(=O)N[C@@H](CCCNC(=N)N)C(=O)N[C@@H](Cc1ccc(O)cc1)C(=O)O [Peptide R3P83] | 0.08 nM |  | 
CC[C@H](C)[C@H](NC(=O)[C@H](CO)NC(=O)[C@H](CC(N)=O)NC(=O)[C@H](CC(C)C)NC(=O)[C@H](Cc1ccc(O)cc1)NC(=O)[C@H](CCCCN)NC(=O)[C@H](CCCCN)NC(=O)[C@H](CC(C)C)NC(=O)[C@H](C)NC(=O)[C@H](CCSC)NC(=O)[C@H](CCC(N)=O)NC(=O)[C@H](CCCCN)NC(=O)[C@H](CCCNC(=N)N)NC(=O)[C@H](CC(C)C)NC(=O)[C@H](CCCNC(=N)N)NC(=O)[C@@H](NC(=O)[C@H](Cc1ccc(O)cc1)NC(=O)[C@H](CC(N)=O)NC(=O)[C@H](CC(=O)O)NC(=O)[C@@H](NC(=O)[C@H](Cc1ccccc1)NC(=O)[C@@H](NC(=O)[C@H](C)NC(=O)[C@H](CC(=O)O)NC(=O)[C@H](CO)NC(=O)[C@@H](N)Cc1c[nH]cn1)C(C)C)[C@@H](C)O)[C@@H](C)O)C(=O)N[C@@H](CCCCN)C(=O)N[C@@H](CC(N)=O)C(=O)N[C@@H](CCCCN)C(=O)N[C@@H](CCCNC(=N)N)C(=O)O [Peptide R3P105] | 0.3 nM |  | 
HSDAVFTDDYTRLRKEVAAKKYLESIKDKRY [Peptide R3P173] |  |  | 200 nM
CC[C@H](C)[C@H](NC(=O)[C@H](CC(=O)O)NC(=O)[C@H](CC(N)=O)NC(=O)[C@H](CC(C)C)NC(=O)[C@H](Cc1ccc(O)cc1)NC(=O)[C@H](CCCCN)NC(=O)[C@H](CCCCN)NC(=O)[C@H](C)NC(=O)[C@H](C)NC(=O)[C@H](CC(C)C)NC(=O)[C@H](CCC(N)=O)NC(=O)[C@H](CCCCN)NC(=O)[C@H](CCCNC(=N)N)NC(=O)[C@H](CC(C)C)NC(=O)[C@H](CCCNC(=N)N)NC(=O)[C@@H](NC(=O)[C@H](Cc1ccc(O)cc1)NC(=O)[C@H](CC(N)=O)NC(=O)[C@H](CC(=O)O)NC(=O)[C@@H](NC(=O)[C@H](Cc1ccccc1)NC(=O)[C@@H](NC(=O)[C@H](C)NC(=O)[C@H](CC(=O)O)NC(=O)[C@H](CO)NC(=O)[C@@H](N)Cc1c[nH]cn1)C(C)C)[C@@H](C)O)[C@@H](C)O)C(=O)N[C@@H](CCCCN)C(=O)N[C@@H](CCCCN)C(=O)NCC(=O)O [Peptide R3P32] | 0.4 nM |  | 
CC[C@H](C)[C@H](NC(=O)[C@H](CC(=O)O)NC(=O)[C@H](CC(N)=O)NC(=O)[C@H](CC(C)C)NC(=O)[C@H](Cc1ccc(O)cc1)NC(=O)[C@H](CCCCN)NC(=O)[C@H](CCCCN)NC(=O)[C@@H](NC(=O)[C@H](C)NC(=O)[C@H](CC(C)C)NC(=O)[C@H](CCC(N)=O)NC(=O)[C@H](CCCCN)NC(=O)[C@H](CCCNC(=N)N)NC(=O)[C@H](CC(C)C)NC(=O)[C@H](CCCNC(=N)N)NC(=O)[C@@H](NC(=O)[C@H](Cc1ccc(O)cc1)NC(=O)[C@H](CC(N)=O)NC(=O)[C@H](CC(=O)O)NC(=O)[C@@H](NC(=O)[C@H](Cc1ccccc1)NC(=O)[C@@H](NC(=O)[C@H](C)NC(=O)[C@H](CC(=O)O)NC(=O)[C@H](CO)NC(=O)[C@@H](N)Cc1c[nH]cn1)C(C)C)[C@@H](C)O)[C@@H](C)O)C(C)C)C(=O)N[C@@H](CC(C)C)C(=O)N[C@@H](CCCCN)C(=O)NCC(=O)NCC(=O)N[C@H](C(=O)O)[C@@H](C)O [Peptide R3P28] | 7 nM |  | 
H-HSDAVFTDNYTRLRKQMAAKKYLNSIGNKR-OH [Peptide R3P121] | 1 nM | 50 | 
HKDGIFTDSYSRYRKQMAVKKYLAAVL-NH2 [PAC2] | 34 nM |  | 
CC[C@H](C)[C@H](NC(=O)CNC(=O)[C@H](CC(=O)O)NC(=O)[C@H](CO)NC(=O)[C@@H](N)Cc1c[nH]cn1)C(=O)N[C@@H](Cc1ccccc1)C(=O)N[C@H](C(=O)N[C@@H](CC(=O)O)C(=O)N[C@@H](CO)C(=O)N[C@@H](Cc1ccc(O)cc1)C(=O)N[C@@H](CO)C(=O)N[C@@H](CCCNC(=N)N)C(=O)N[C@@H](Cc1ccc(O)cc1)C(=O)N[C@@H](CCCNC(=N)N)C(=O)N[C@@H](CCCCN)C(=O)N[C@@H](CCC(N)=O)C(=O)N[C@@H](CCSC)C(=O)N[C@@H](CCCCN)C(=O)N[C@H](C(=O)N[C@@H](CCCCN)C(=O)N[C@@H](CCCCN)C(=O)N[C@@H](Cc1ccc(O)cc1)C(=O)N[C@@H](CC(C)C)C(=O)N[C@@H](C)C(=O)N[C@@H](C)C(=O)N[C@H](C(=O)N[C@@H](CC(C)C)C(N)=O)C(C)C)C(C)C)[C@@H](C)O [PAC18] | 1.1 nM |  | 
